Patent US20240293430A1, “WITHAFERIN A AND IMMUNE CHECKPOINT BLOCKER COMBINATION THERAPIES” (University of South Florida, priority 2023, published 2024)

Test system: PARP, BCL-XL, CHOP, p-eIF-2 in NSCLC cell lines
Experiment: Western blot of apoptosis and ER stress markers
Type: cell-based, mouse (LLC), human (H1650)
Method: FIGS. 1A-lE depict that WFA induces ER stress-mediated apoptosis in NSCLC cell lines. (FIG. 1A) NSCLC cells were plated on 96-well plates and treated with different concentrations of WFA ([…]) in triplicates. Forty-eight hours post-treatment, cell viability was determined using Cell Titer-Glo assay. Luminescence values were normalized to control untreated cells and IC50 values are represented as the mean of two independent experiments ±SEM. (FIG. 1B) NSCLC cells were treated WFA for forty-eight hours, then collected to measure apoptotic cell death using Annexin V assay in LLC cells, H1650 cells, and A549 cells. Percentages of early (annexin*DAPI-) and late (annexin*DAPI+) apoptotic cells are represented as means of two separate experiments ±SEM and statistical significance was calculated using one-way ANOVA and a Fisher LSD post hoc test was used to compare the mean of each group to that of the control group. (FIGS. 1C-1D) WFA treated cells were collected in Trizol and total RNA was isolated to measure the levels of Bax (FIG. 1C) and Bcl2 (FIG. 1D) mRNA using qRT-PCR. PCR experiments were repeated at least twice, and one representative experiment is shown as mean±SEM of the technical replicates. (FIG. 1E) Western blot of ER stress markers p-eIF-2 and CHOP was performed using total lysates of WFA-treated LLC cells. The quantification of western blot band density was performed using Image J software v.1.54d and normalized to housekeeping control protein in LLC cells (0-actin). […] Data were obtained from two independent experiments.
FIGS. 7A-7I depict qRT-PCR analysis of the change in expression of pro-apoptotic and anti-apoptotic induced by WFA treatment. WFA increased the mRNA levels of proapoptotic protein Bak-1 in (FIG. 7A) LLC cells and BAD in (FIG. 7C) H1650 cells. […]
Total protein was isolated using Radioimmunoprecipitation Assay (RIPA) buffer (Thermo Fisher Scientific, Waltham, MA, USA) and sonication of cell pellets using Branson digital sonifier 450. […] Then, protein levels were quantified using a Pierce Coomassie Protein assay kit (Thermo Fisher Scientific, Waltham, MA, USA) according to the manufacturer's instruction and the absorbance values at 595 nm were measured using a plate reader (Bio Tek, Winooski, VT, USA) and used to calculate protein concentrations. […] Protein bands were detected using SuperSignal West Pico PLUS Chemiluminescent Substrate or West Femto Maximum Sensitivity Substrate (Thermo Fisher Scientific, Waltham, MA, USA) and imaged using the ChemiDoc XRS imaging system (Bio-Rad, Hercules, CA, USA) according to the manufacturer's instructions. Band density was measured using Image J software version 1.54d and was normalized to housekeeping proteins (0-actin or Vinculin). […]

In the case of `CC1=C(CO)C(=O)O[C@@H]([C@@H](C)[C@H]2CC[C@H]3[C@@H]4C[C@H]5O[C@]56[C@@H](O)C=CC(=O)[C@]6(C)[C@H]4CC[C@]23C)C1` [WFA, Withaferin A], the “levels of BCL-XL” value (H1650 cells) is reported as “reduced”, the PARP cleavage (LLC and H1650 cells) is reported as “increased” and the “levels of C/EBP homologous protein (CHOP)” value (LLC cells) is reported as “increases”. The “phosphorylation of eIF-2” value (LLC cells) was “increases”.
